{"source": "patent US20260159465A1", "about": "“METHODS OF MAKING AND USING 1-METHYLEFFUSOL” (Laboratory for Synthetic Chemistry and Chemical Biology …, priority 2024, published 2026)", "key": {"MC3T3-E1 osteoblasts [1]": {"tested_on": "MC3T3-E1 osteoblasts", "test": "Stimulation of alkaline phosphatase (ALP) activity as a marker of bone forming activity", "assay_type": "cell-based", "settings": "0.5 μM and 1.5 μM, 4 days; ASC+b-GP as positive control", "procedure": "Cells were treated with 0.5 μM and 1.5 μM concentrations of 1-Methyleffusol for 4 days and the alkaline phosphatase (ALP) activity, as a marker of bone forming activity, was measured. Ascorbate and beta-glycerophosphate treatment (ASC+b-GP) was performed as positive control for ALP induction."}, "bone forming activities": {"tested_on": "bone forming activities", "settings": "prior studies (U.S. application Ser. No. 17/713,384; Chinese Application No. 202210551690.4); cited from earlier work"}, "MC3T3-E1 osteoblasts [2]": {"tested_on": "MC3T3-E1 osteoblasts", "test": "Promotion of osteoblast mineralization: calcium deposition by Alizarin Red staining", "assay_type": "cell-based", "settings": "1.5 or 5 mM in osteoblast mineralization medium (OM), 14 days", "procedure": "Cells were treated with 1-Methyleffusol (1.5 or 5 mM) in osteoblast mineralization medium (OM) for 14 days, and the calcium deposition in the cell layer was measured by Alizarin Red staining (images not shown)."}}}
{"smiles": "C=Cc1cc(O)c(C)c2c1-c1ccc(O)c(C)c1CC2", "note": "[1-Methyleffusol, 1,8-dimethyl-4-vinyl-9,10-dihydrophenanthrene-2,7-diol]", "values": [{"measurement": "alkaline phosphatase (ALP) activity", "setting": "MC3T3-E1 osteoblasts [1]", "result": "stimulate ALP activity"}, {"measurement": "stimulation of bone forming activities", "setting": "bone forming activities", "result": "exhibited the ability for stimulation of bone forming activities"}, {"measurement": "mineralization (calcium deposition in the cell layer, Alizarin Red staining)", "setting": "MC3T3-E1 osteoblasts [2]", "result": "promoted mineralization"}]}
